Measurements from patent US12643867B2, “Compositions and uses thereof” (University of Virginia Patent Foundation, priority 2017, dated 2026).

How the values were obtained:
[1] = target: T1, M4K5 (Mitogen-activated protein kinase kinase kinase kinase 5) (Homo sapiens, UniProt Q9Y4K4); experiment: SILAC LC-MS ATP acyl phosphate probe competition, native kinases in HEK293T; format: binding; details: ATP 1 mM, Ketanserin, Ritanserin 100 μM, RF001 1 mM; for SILAC ratio, M4K5 Lys1 probe-modified peptide: site Lys1; for SILAC ratio, M4K5 Lys2 probe-modified peptide: site Lys2
T1 construct: Native kinases; endogenous in cells; host or cells: HEK293T soluble proteome
T1 sequence (Q9Y4K4 whole entry): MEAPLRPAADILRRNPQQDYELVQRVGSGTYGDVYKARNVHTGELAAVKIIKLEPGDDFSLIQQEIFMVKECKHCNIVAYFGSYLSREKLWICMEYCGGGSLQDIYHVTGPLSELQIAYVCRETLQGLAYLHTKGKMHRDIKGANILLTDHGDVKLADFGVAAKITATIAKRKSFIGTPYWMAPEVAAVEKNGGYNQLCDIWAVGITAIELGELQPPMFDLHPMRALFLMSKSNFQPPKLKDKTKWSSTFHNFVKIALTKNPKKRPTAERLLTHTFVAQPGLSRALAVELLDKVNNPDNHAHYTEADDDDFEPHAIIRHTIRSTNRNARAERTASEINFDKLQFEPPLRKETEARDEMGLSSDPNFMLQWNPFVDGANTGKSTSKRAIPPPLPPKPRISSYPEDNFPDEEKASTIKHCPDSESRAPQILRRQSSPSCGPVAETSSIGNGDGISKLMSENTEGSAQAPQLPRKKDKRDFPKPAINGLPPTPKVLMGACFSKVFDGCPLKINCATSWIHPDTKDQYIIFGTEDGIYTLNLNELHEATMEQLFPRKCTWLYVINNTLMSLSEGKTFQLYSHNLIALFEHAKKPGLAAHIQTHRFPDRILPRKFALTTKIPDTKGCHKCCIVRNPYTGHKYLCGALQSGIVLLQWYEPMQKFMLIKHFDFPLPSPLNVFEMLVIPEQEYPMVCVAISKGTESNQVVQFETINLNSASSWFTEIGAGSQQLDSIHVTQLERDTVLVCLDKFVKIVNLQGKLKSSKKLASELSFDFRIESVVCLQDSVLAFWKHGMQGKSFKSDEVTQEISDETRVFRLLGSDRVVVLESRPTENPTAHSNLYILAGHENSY
Protocol: (§1) Proteomes were diluted to 2 mg/ml in kinase buffer. The light and heavy proteomes (0.5 mg, 250 μL total reaction volume) were pre-treated with vehicle or compound, respectively (5 μL, DMSO (light) or 50× stock in DMSO (heavy)), mixed gently, and incubated at 25° C. for 30 min. […] After incubation, matched light and heavy proteomes were transferred and mixed in a 1:1 ratio in a two-dram vial containing 4:1:3 MeOH/CHCl3/H2O (2 mL MeOH, 500 AL CHCl3, 1.5 mL H2O) for extraction of proteins to remove excess probe, quickly vortexed, and centrifuged at 1,400×g for 3 min to pellet protein. Organic and aqueous layers were removed using a Pasteur pipette, and the protein pellet was transferred to a screw-top tube in 600 μL MeOH. A second extraction was performed by adding CHCl3 (150 μL) and H2O (600 μL) to each sample, vortexed, and centrifuged at 1,400×g for 3 min to pellet protein. Organic and aqueous layers were removed by pipetting. MeOH added to pellet (600 μL) and pellets were re-suspended by sonication (3×1 sec pulse, 20% amplitude) for a final extraction. Samples were then centrifuged at 17,000×g for 5 min to pellet protein and MeOH was removed by pipetting. The pellets were re-suspended in 10 M urea/25 mM ammonium bicarbonate ([…]), brought to a final volume of 1 mL with 25 mM ammonium bicarbonate, reduced with 10 mM DTT for 15 min at 65° C. allowed to cool, and then alkylated with 40 mM iodoacetamide for 30 min at 25° C. in the dark. To desalt the samples, each was transferred to a two-dram glass vial, and to the vial 4:1:2 MeOH/CHCl3/H2O (2 mL MeOH, 500 AL CHCl3, 1 mL H2O) was added. The vials were vortexed quickly, spun at 1.400×g for 3 min to pellet protein, and aqueous and organic layers were removed using a Pasteur pipette. The resulting protein pellet was transferred to a screw-top tube in 600 μL MeOH, and then CHCl3 (150 μL) and HO (600 μL) were added to extract protein a second time. The samples were vortexed quickly, centrifuged at 1,400×g to pellet protein, and the aqueous and organic layers were removed by pipetting. Resulting protein pellet was suspended in MeOH (600 μL) via sonication (3×1 sec pulse, 20% amplitude), centrifuged at 17,000×g for 5 min to pellet protein, and MeOH removed by pipetting. Protein pellets were then re-suspended in 25 mM ammonium bicarbonate (500 μL) and digested with 7.5 μg Trypsin/Lys-C(Promega, 15 μL, 0.5 μg/μL) for 3 h at 37° C. Avidin-agarose beads (Thermo Scientific Pierce, 100 AL aliquot per sample) were washed three times by adding 10 mL DPBS, centrifuged at 1,400×g for 1 min, and decanting. This wash step was repeated for a total of 3 times. Digested protein samples were mixed with washed avidin beads (100 μL) and brought to a volume of 5.5 mL with DPBS in a 15 mL conical and rotated for 1 h to enrich samples for the covalent desthiobiotin modification. The beads were washed with 25 mM ammonium bicarbonate (3× with 10 mL, centrifuge at 1,400×g for 3 min, decant) and then H2O (3× with 10 mL, centrifuge at 1,400×g for 3 min, decant). Washed beads were then transferred to a low-bind microfuge tube, centrifuged at 1,400×g for 3 min, allowed to rest for 1 min to settle beads, and then excess H2O was removed carefully using a gel-loading pipette tip. To elute peptides, 100 μL of elution buffer (50% acetonitrile, ACN; 0.1% formic acid) was added to each sample and incubated for 3 min. Beads were spun down at 1.400×g for 3 min, allowed to rest for 1 min to settle beads, and then 75 μL of peptide-containing supernatant was removed carefully using a gel-loading pipette tip and transferred to a new low bind centrifuge tube. This step was repeated two more times with 75 μL of elution buffer and all eluent were collected into the same centrifuge tube (˜225 μL total). Peptides were dried on a speed vacuum, resulting peptide samples acidified in 5% (v/v) formic acid, and stored at −80° C. until analysis.
(§2) The peptide samples were analyzed by liquid chromatography-mass spectrometry. […]

[2] = target: T2, NEK3 (Serine/threonine-protein kinase Nek3) (Homo sapiens, UniProt P51956); experiment: as above; format: binding; details: site ACT; ATP 1 mM; Ketanserin, Ritanserin 100 μM; RF001 1 mM
T2 construct: Native kinases; endogenous in cells; host or cells: HEK293T soluble proteome
T2 sequence (P51956 1-506): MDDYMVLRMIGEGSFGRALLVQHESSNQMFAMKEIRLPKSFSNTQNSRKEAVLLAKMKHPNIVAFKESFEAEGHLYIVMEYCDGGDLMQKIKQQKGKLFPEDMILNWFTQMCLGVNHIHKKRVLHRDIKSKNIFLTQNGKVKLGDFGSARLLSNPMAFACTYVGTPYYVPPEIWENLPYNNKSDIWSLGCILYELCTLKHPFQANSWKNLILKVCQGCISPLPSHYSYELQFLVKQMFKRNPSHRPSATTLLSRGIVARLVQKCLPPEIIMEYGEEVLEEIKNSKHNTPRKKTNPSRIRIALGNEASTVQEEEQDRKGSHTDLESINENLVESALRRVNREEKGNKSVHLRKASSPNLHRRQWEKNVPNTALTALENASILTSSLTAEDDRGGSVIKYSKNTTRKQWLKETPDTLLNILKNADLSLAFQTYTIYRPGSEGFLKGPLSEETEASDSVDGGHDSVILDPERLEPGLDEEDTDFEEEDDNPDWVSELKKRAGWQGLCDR
Protocol: as §1, §2

Row | SMILES | SILAC ratio, M4K5 Lys1 probe-modified peptide [1] | SILAC ratio, M4K5 Lys2 probe-modified peptide [1] | SILAC ratio, NEK3 probe-modified peptide [2]
1 | Cc1nc2sccn2c(=O)c1CCN1CCC(=C(c2ccc(F)cc2)c2ccc(F)cc2)CC1 [Ritanserin] | 2.4 | 1.9 | 2.2
2 | Fc1ccc(C(=C2CCNCC2)c2ccc(F)cc2)cc1 [RF001, 4-(Bis(4-fluorophenyl)methylene) piperidine] | 0.9 | 1.3 | 1.0
3 | O=C(c1ccc(F)cc1)C1CCN(CCn2c(=O)[nH]c3ccccc3c2=O)CC1 [Ketanserin] | 1.3 | 1.3 | 1.0
